Source: PubChem BioAssay AID248 (DTP/NCI, 2004)
“And” between values parts separate entries of the source, which are not always exact repeats. Equal entries are not always repeated. Toxic doses and inconclusive results are not listed. No stated cut-off is given here; in the data, active means T/C of 150% or more; inactive means T/C below 125%.

Test system: L1210 leukemia ip in BDF1 mice, survival T/C
Experiment: NCI In Vivo Anticancer Drug Screen. Data for tumor model L1210 Leukemia (intraperitoneal) in B6D2F1 (BDF1) mice
Conditions: endpoint: mean survival time, higher = longer survival
Method in brief: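 Read-out is survival time, reported as the treated-group measurement over the vehicle-control measurement.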

[1] = dose: 100.0 mg/kg/injection, schedule: Q01DX009 (ip), vehicle: Klucel (hydroxypropylcellulose) (HPC)
[2] = dose: 200.0 mg/kg/injection, schedule: Q01DX009 (ip), vehicle: Klucel (hydroxypropylcellulose) (HPC)
[3] = dose: 100.0 mg/kg/injection, schedule: Q04DX003 (ip), vehicle: saline with Tween-80
[4] = dose: 200.0 mg/kg/injection, schedule: Q04DX003 (ip), vehicle: saline with Tween-80
[5] = dose: 400.0 mg/kg/injection, schedule: Q04DX003 (ip), vehicle: saline with Tween-80
[6] = dose: 100.0 mg/kg/injection, schedule: Q01DX001 (ip), vehicle: saline
[7] = dose: 200.0 mg/kg/injection, schedule: Q01DX001 (ip), vehicle: saline
[8] = dose: 400.0 mg/kg/injection, schedule: Q01DX001 (ip), vehicle: saline
[9] = dose: 100.0 mg/kg/injection, schedule: Q04DX002 (ip), vehicle: saline
[10] = dose: 200.0 mg/kg/injection, schedule: Q04DX002 (ip), vehicle: saline
[11] = dose: 400.0 mg/kg/injection, schedule: Q04DX002 (ip), vehicle: saline
[12] = dose: 75.0 mg/kg/injection, schedule: Q01DX001 (ip), vehicle: carboxymethylcellulose (CMC)
[13] = dose: 150.0 mg/kg/injection, schedule: Q01DX001 (ip), vehicle: carboxymethylcellulose (CMC)
[14] = dose: 50.0 mg/kg/injection, schedule: Q01DX009 (ip), vehicle: saline
[15] = dose: 100.0 mg/kg/injection, schedule: Q01DX009 (ip), vehicle: saline
[16] = dose: 100.0 mg/kg/injection, schedule: Q04DX002 (ip), vehicle: saline with Tween-80
[17] = dose: 200.0 mg/kg/injection, schedule: Q04DX002 (ip), vehicle: saline with Tween-80
[18] = dose: 100.0 mg/kg/injection, schedule: Q01DX009 (ip), vehicle: saline with Tween-80
[19] = dose: 200.0 mg/kg/injection, schedule: Q01DX009 (ip), vehicle: saline with Tween-80
[20] = dose: 400.0 mg/kg/injection, schedule: Q01DX009 (ip), vehicle: saline with Tween-80
[21] = dose: 100.0 mg/kg/injection, schedule: Q04DX003 (ip), vehicle: Klucel (hydroxypropylcellulose) (HPC)
[22] = dose: 200.0 mg/kg/injection, schedule: Q04DX003 (ip), vehicle: Klucel (hydroxypropylcellulose) (HPC)
[23] = dose: 100.0 mg/kg/injection, schedule: Q04DX003 (ip), vehicle: saline
[24] = dose: 200.0 mg/kg/injection, schedule: Q04DX003 (ip), vehicle: saline
[25] = dose: 400.0 mg/kg/injection, schedule: Q04DX003 (ip), vehicle: saline
[26] = dose: 400.0 mg/kg/injection, schedule: Q01DX009 (ip), vehicle: Klucel (hydroxypropylcellulose) (HPC)
[27] = dose: 100.0 mg/kg/injection, schedule: Q01DX009 (ip), vehicle: saline sonified
[28] = dose: 200.0 mg/kg/injection, schedule: Q01DX009 (ip), vehicle: saline sonified
[29] = dose: 400.0 mg/kg/injection, schedule: Q01DX009 (ip), vehicle: saline sonified
[30] = dose: 400.0 mg/kg/injection, schedule: Q04DX002 (ip), vehicle: saline with Tween-80
[31] = dose: 25.0 mg/kg/injection, schedule: Q04DX003 (ip), vehicle: Klucel (hydroxypropylcellulose) (HPC)

Measured: T/C

CC(=O)Nc1cc([As](=O)(O)O)ccc1O
inactive: dose: 50.0 mg/kg/injection, schedule: Q01DX009 (ip), vehicle: Klucel (hydroxypropylcellulose) (HPC) 105 % of control | [1] 102 % of control | [2] 97 % of control

Nc1ncnc(N)c1NC(=O)c1ccc(CCc2ccccc2)c(Cl)c1
inactive: dose: 100.0 mg/kg/injection, schedule: Q01DX001 (ip), vehicle: Klucel (hydroxypropylcellulose) (HPC) 102 % of control | dose: 200.0 mg/kg/injection, schedule: Q01DX001 (ip), vehicle: Klucel (hydroxypropylcellulose) (HPC) 90 % of control | dose: 400.0 mg/kg/injection, schedule: Q01DX001 (ip), vehicle: Klucel (hydroxypropylcellulose) (HPC) 86 % of control

O=C(Oc1cccc(OC(=O)c2ccccc2)c1)c1ccccc1
inactive: [3] 100 % of control | [4] 91 % of control | [5] 88 % of control

CNC(=O)CS(=O)(=O)c1ccc(C)cc1
inactive: [6] 97 % of control | [7] 95 % of control | [8] 93 % of control

O=S1(=O)CS(=O)(=O)CS(=O)(=O)C1
inactive: [9] 108 % of control | [10] 119 % of control | [11] 101 % of control

OC1CC2(Cl)C(Cl)=C(Cl)C1(Cl)C2(Cl)Cl (stereo not given)
inactive: [12] 87 % of control | [13] 95 % of control | dose: 300.0 mg/kg/injection, schedule: Q01DX001 (ip), vehicle: carboxymethylcellulose (CMC) 93 % of control

COc1ccc(C=C2CCC2)cc1
inactive: dose: 100.0 mg/kg/injection, schedule: Q04DX003 (ip), vehicle: gum acacia 95 % of control | dose: 200.0 mg/kg/injection, schedule: Q04DX003 (ip), vehicle: gum acacia 99 % of control | dose: 400.0 mg/kg/injection, schedule: Q04DX003 (ip), vehicle: gum acacia 99 % of control

CC(C)(CO)NC=O (tested in a mixture with another compound)
inactive: [14] 107 % of control | [15] 113 % of control | dose: 200.0 mg/kg/injection, schedule: Q01DX009 (ip), vehicle: saline 113 % of control

C=C(C(=O)OC)C(C(=O)OC)=C(N1CCCCC1)N1CCCCC1
inactive: [16] 95 % of control | [17] 95 % of control

O=[N+]([O-])c1ccccc1O
inactive: [18] 98 % of control | [19] 107 % of control | [20] 100 % of control

Cc1cnc2c(N)nn(C)c2n1
inactive: [14] 102 % of control | [15] 110 % of control | dose: 100.0 mg/kg/injection, schedule: Q04DX003 (ip), vehicle: alcohol 102 % of control | dose: 200.0 mg/kg/injection, schedule: Q04DX003 (ip), vehicle: alcohol 98 % of control

CN=C(NC)c1ccc(Cl)c(Cl)c1
inactive: [21] 96 % of control | [22] 98 % of control

O=C(c1ccccc1)C(Cl)Cl
inactive: [23] 106 % of control | [24] 96 % of control | [25] 98 % of control

CN(C)c1ccc(C=O)c(F)c1
inactive: [1] 96 % of control | [2] 100 % of control | [26] 110 % of control

O=C(O)Cc1ccc(N=Nc2c(O)c(C(=O)O)cc3ccccc23)cc1
inactive: [1] 96 % of control | [21] 93 % of control | [2] 105 % of control | [22] 100 % of control | [26] 100 % of control | dose: 400.0 mg/kg/injection, schedule: Q04DX003 (ip), vehicle: Klucel (hydroxypropylcellulose) (HPC) 103 % of control

O=C(COCc1ccccc1)OCc1ccccc1
inactive: [27] 100 % of control | dose: 100.0 mg/kg/injection, schedule: Q04DX003 (ip), vehicle: saline sonified 90 % of control | [23] 98 % of control | [28] 102 % of control | dose: 200.0 mg/kg/injection, schedule: Q04DX003 (ip), vehicle: saline sonified 114 % of control | [24] 94 % of control | [29] 98 % of control | dose: 400.0 mg/kg/injection, schedule: Q04DX003 (ip), vehicle: saline sonified 106 % of control | [25] 94 % of control

CC1Cc2c(cccc2[N+](=O)[O-])C1=O (stereo not given)
inactive: [3] 101 % of control | [4] 96 % of control | [5] 107 % of control

CCOC(=O)/C=C(/C)N
inactive: [16] 95 % of control | [17] 91 % of control | [30] 95 % of control

CCSC(=O)OCn1ncc2cc([N+](=O)[O-])ccc21
inactive: [6] 112 % of control | [7] 91 % of control | [8] 103 % of control

O=C(CF)NC1C(O)OC(CO)C(O)C1O (stereo not given)
inactive: [6] 107 % of control | [7] 112 % of control

CCCCCCCC(O)CCC(=O)NN (stereo not given)
inactive: dose: 25.0 mg/kg/injection, schedule: Q01DX009 (ip), vehicle: saline with Tween-80 98 % of control | dose: 50.0 mg/kg/injection, schedule: Q01DX009 (ip), vehicle: saline with Tween-80 102 % of control | [18] 106 % of control

Nc1nc(-c2ccc(Cl)cc2)c(N=Nc2ccc(Br)cc2)s1
inactive: [3] 104 % of control | [4] 97 % of control | [5] 101 % of control

CCOC(=O)c1ccc(N2C(=O)c3cccc4cccc(c34)C2=O)cc1
inactive: [18] 95 % of control | [3] 103 % of control | [19] 89 % of control | [4] 98 % of control | [20] 89 % of control | [5] 95 % of control

O=[N+]([O-])c1ccc([N+](=O)[O-])c2nsnc12
inactive: dose: 12.5 mg/kg/injection, schedule: Q04DX003 (ip), vehicle: Klucel (hydroxypropylcellulose) (HPC) 98 % of control | [31] 102 % of control

CC(C)(S)CNCCSC(=O)c1ccccc1
inactive: [3] 102 % of control | [4] 100 % of control | [5] 92 % of control

Cc1ccc([N+](=O)[O-])cc1NC(=O)N(CCO)C1CCCCC1
inactive: dose: 100.0 mg/kg/injection, schedule: Q04DX002 (ip), vehicle: Klucel (hydroxypropylcellulose) (HPC) 101 % of control | dose: 200.0 mg/kg/injection, schedule: Q04DX002 (ip), vehicle: Klucel (hydroxypropylcellulose) (HPC) 100 % of control | dose: 400.0 mg/kg/injection, schedule: Q04DX002 (ip), vehicle: Klucel (hydroxypropylcellulose) (HPC) 104 % of control

Cc1cnc(C)c(C(O)c2ccccc2)n1 (stereo not given)
inactive: dose: 50.0 mg/kg/injection, schedule: Q01DX001 (ip), vehicle: saline 98 % of control | [6] 98 % of control | [7] 112 % of control | [8] 106 % of control

CCC(O)C(c1ccccc1)(c1ccccc1)C(C)CN(C)C (stereo not given)
inactive: [6] 100 % of control | [7] 97 % of control

CN(N)C(=O)Nc1ccc(Cl)c(Cl)c1
inactive: [12] 110 % of control | [13] 113 % of control

NC(C(=O)O)C(=O)c1ccccc1 (stereo not given)
inactive: [27] 101 % of control | [23] 102 % of control | [28] 101 % of control | [24] 112 % of control | [29] 106 % of control | [25] 100 % of control

CCOc1ccc([N+](=O)[O-])cc1CNCCCl
inactive: [31] 102 % of control | dose: 50.0 mg/kg/injection, schedule: Q04DX003 (ip), vehicle: Klucel (hydroxypropylcellulose) (HPC) 98 % of control | [21] 98 % of control and 104 % of control

CC[N+]1(CC)CC[N+](CC)(CC)CC1
inactive: [6] 97 % of control | [9] 96 % of control | [7] 97 % of control | [10] 96 % of control | [8] 102 % of control | [11] 107 % of control

c1ccc2c(c1)Cc1cc(NC3=NCCO3)ccc1-2
inactive: dose: 50.0 mg/kg/injection, schedule: Q04DX002 (ip), vehicle: saline with Tween-80 93 % of control | [16] 100 % of control | [3] 101 % of control | [17] 104 % of control | [4] 89 % of control | [30] 93 % of control | [5] 87 % of control

C#CC(C)(O)CC (stereo not given)
inactive: [6] 100 % of control | [7] 100 % of control | [8] 103 % of control
